US20040224981A1, “Antibacterial methods and compositions” (priority 2003, published 2004)
Where two headings read alike, the source gives them in different places.

What was measured:
[1] = tested on: E. faecalis; test: MIC against E. faecalis; format: cell-based; settings: for MIC: Enterococcus faecalis, read-out: MIC
[2] = tested on: MRS-resistant mutants of S. aureus; test: Susceptibility (MIC) of MRS-resistant mutants of S. aureus; format: cell-based; settings: Staphylococcus aureus
Protocol: MRS-resistant mutants generated in vitro in either serial passage or spontaneous resistance development studies were evaluated for susceptibility to mupirocin alone and in a 1:1 combination with MRSi compound 5.

[3] = tested on: E. faecium; test: MIC against E. faecium; format: cell-based
Protocol: MRSi compound 5 alone and in combination with mupirocin was tested recent clinical isolates of E. faecalis (n=28) and E. faecium (n=23). Both the acetate salt and mupirocinate salts of MRSi compound 5 maintained potent activity against vancomycin-susceptible and—resistant enterococci (Tables 8, 9, and 10).

[4] = tested on: S. aureus; test: MIC against S. aureus strains and clinical isolates (broth microdilution); format: cell-based, Staphylococcus aureus; settings: Staphylococcus aureus, read-out: MIC
Procedure, shortened: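 Broth microdilution per NCCLS in cation-supplemented Mueller-Hinton broth, final inoculum 5×10^5 CFU/ml from 0.5 McFarland suspensions diluted 1:10. Trays incubated aerobically overnight with quality control strains each run. Checkerboard FIC index: ≦0.5 synergy, >0.5 to 4 additive/indifferent, >4.0 antagonism.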

[5] = recent clinical isolates of E. faecalis, ALL (28)
[6] = recent clinical isolates of E. faecium, ALL (23)

With `C/C(=C\C(=O)OCCCCCCCCC(=O)O)C[C@@H]1OC[C@H](C[C@@H]2O[C@H]2[C@@H](C)[C@H](C)O)[C@@H](O)[C@H]1O` [Mupirocin, Pseudomonic acid A] the MIC50 ([1]; E. faecalis, Van-R(11)) was over 8 µg/mL, the MIC90 ([1]; E. faecalis, Van-R(11)) was over 8 µg/mL and the Mode (MIC) ([1]; E. faecalis, Van-R(11)) was over 8 µg/mL. It also gave an MIC50 ([1]; E. faecalis, Van-S (16)) of over 8 µg/mL, an MIC90 ([1]; E. faecalis, Van-S (16)) of over 8 µg/mL and a Mode (MIC) ([1]; E. faecalis, Van-S (16)) of over 8 µg/mL. The MIC ([1]; ATCC29212, Table 2, E. faecalis ATCC 29212) was 8 µg/mL, the MIC ([1]; ATCC29212, Table 3, E. faecalis ATCC 29212) was 8 µg/mL and the MIC ([1]; ATCC29212, Table 4, E. faecalis ATCC 29212) was over 8 µg/mL. It also gave an MIC ([1]; ATCC 51299 / VRE, Table 8, E. faecalis ATCC 51299 (VRE)) of 32 µg/mL, an MIC ([1]; Table 2, E. faecalis 1) of 8 µg/mL and an MIC ([1]; Table 2, E. faecalis 7) of 8 µg/mL. For the same molecule, the MIC ([1]; Table 3, E. faecalis 1) was 8 µg/mL, the MIC ([1]; Table 3, E. faecalis 7) was 8 µg/mL and the MIC ([1]; Table 4, E. faecalis 1) was over 8 µg/mL. It also gave an MIC ([1]; Table 4, E. faecalis 7) of over 8 µg/mL, an MIC ([1]; Table 8, E. faecalis 1) of 32 µg/mL and an MIC ([1]; Table 8, E. faecalis 7) of 64 µg/mL. The MIC50 [1, 5] was over 8 µg/mL, the MIC90 [1, 5] was over 8 µg/mL and the Mode (MIC) [1, 5] was over 8 µg/mL. It also gave an MIC ([2]; ATCC29213, S. aureus ATCC 29213, metS wild-type) of 0.12 µg/mL, an MIC ([2]; S. aureus SP-9B5, metS I57N, V296F) of 0.5 µg/mL and an MIC ([2]; S. aureus SP-21A, metS A77V) of 1 µg/mL. The MIC ([2]; read-out: MICs ranging, all the MRS-resistant mutants) was 0.12 to 1 µg/mL, the MIC50 ([3]; E. faecium, Van-R(12)) was 1 µg/mL and the MIC90 ([3]; E. faecium, Van-R(12)) was over 8 µg/mL. It also gave a Mode (MIC) ([3]; E. faecium, Van-R(12)) of 1 µg/mL, an MIC50 ([3]; E. faecium, Van-S (11)) of 1 µg/mL and an MIC90 ([3]; E. faecium, Van-S (11)) of 1 µg/mL. The Mode (MIC) ([3]; E. faecium, Van-S (11)) was 1 µg/mL, the “Range (MIC)” value ([3]; E. faecium, Van-S (11), in µg/mL) was 0.25-1 and the MIC ([3]; Enterococcus faecium, ATCC33667, Table 8, E. faecium ATCC 33667, read-out: MIC) was 1 µg/mL. It also gave an MIC50 [3, 6] of 1 µg/mL, an MIC90 [3, 6] of over 8 µg/mL and a Mode (MIC) [3, 6] of 1 µg/mL. For the same molecule, the MIC ([4]; ATCC29213, Table 2, S. aureus ATCC 29213) was 0.12 µg/mL, the MIC ([4]; ATCC29213, Table 3, S. aureus ATCC 29213) was 0.12 µg/mL and the MIC ([4]; ATCC29213, Table 4, S. aureus ATCC 29213) was 0.12 µg/mL. The MIC ([4]; ATCC43300, S. aureus ATCC 43300 (ORSA)) was 0.12 µg/mL, the MIC ([4]; ATCC43300, Table 2, S. aureus ATCC 43300 (ORSA)) was 0.25 µg/mL and the MIC ([4]; ATCC43300, Table 3, S. aureus ATCC 43300 (ORSA)) was 0.25 µg/mL. For the same molecule, the MIC ([4]; NRS 1 / VISA, S. aureus NRS1 (VISA)) was 0.12 µg/mL, the MIC ([4]; NRS 1 / VISA, VISA, S. aureus NRS1 (Mu50)) was 0.06 µg/mL and the MIC ([4]; NRS 3 / VISA, VISA, S. aureus NRS3 (HIP5827)) was 0.5 µg/mL. For the same molecule, the MIC ([4]; NRS 4 / VISA, VISA, S. aureus NRS4 (HIP5836)) was 0.12 µg/mL, the MIC ([4]; NRS 18 / VISA, VISA, S. aureus NRS18 (HIP06854)) was 8 µg/mL and the MIC ([4]; NRS 24 / VISA, VISA, S. aureus NRS24 (HIP09143)) was 8 µg/mL. For the same molecule, the MIC ([4]; NRS 49 / VISA, VISA, S. aureus NRS49 (Korea)) was 0.03 µg/mL, the MIC ([4]; NRS54, Table 6, high-level mupirocin-resistant S. aureus NRS54) was over 256 µg/mL and the MIC ([4]; NRS 54 / VISA, VISA, S. aureus NRS54 (Brazil)) was over 8 µg/mL. It also gave an MIC ([4]; NRS 56 / VISA, VISA, S. aureus NRS56 (Brazil)) of 0.12 µg/mL, an MIC ([4]; NRS107, S. aureus NRS107 (HL Mup rest.)) of over 64 µg/mL and an MIC ([4]; NRS107, Table 2, S. aureus NRS107 (mupA)) of over 8 µg/mL. It also gave an MIC ([4]; NRS107, Table 3, S. aureus NRS107 (mupA)) of over 8 µg/mL, an MIC ([4]; NRS107, Table 4, S. aureus NRS107 (mupA)) of over 8 µg/mL and an MIC ([4]; NRS107, Table 6, high-level mupirocin-resistant S. aureus NRS107) of over 256 µg/mL. The MIC ([4]; NRS127, Table 6, low-level mupirocin-resistant S. aureus NRS127) was 32 µg/mL, the MIC ([4]; S. aureus 10-420 (LL Mup. Rest.)) was over 64 µg/mL and the MIC ([4]; S. aureus 14-354 (LL Mup. Rest.)) was 64 µg/mL. For the same molecule, the MIC ([4]; S. aureus 25-670 (HL Mup. Rest.)) was over 64 µg/mL.
